Measurements from paper PMC6409085, “Three odorant-binding proteins are involved in the behavioral response of Sogatella furcifera to rice plant volatiles” (PeerJ, 2019).
Values joined by “and” are separate entries in the source; they are usually repeats but may differ in a detail not shown here. Equal values may be shown once.

Key:
S. furcifera adults = experiment: Y-tube olfactometer behavioral trials; assay type: in vivo, Sogatella furcifera; conditions: odorant 50 µL/L vs hexane; adults
In short: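 Single S. furcifera adults (2 days post-emergence, starved 0.5 h) chose between odorant (100 µL of 50 µL/L on filter paper) and hexane control in a glass Y-tube, charcoal-filtered humidified air 300 mL/min per arm, 25 ± 1 °C, 50% RH. Choice scored if insect passed half an arm and stayed >1 min within 10 min; 45 insects per compound, chi-squared test.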

SfurOBP3 = SfurOBP3 (Sogatella furcifera, UniProt V5T818); experiment: biochemical; assay type: binding; conditions: for Fluorescence competitive binding assay, fluorescence intensity: OBP3, three replicate columns
SfurOBP3, sequence (V5T818 entry or part of it): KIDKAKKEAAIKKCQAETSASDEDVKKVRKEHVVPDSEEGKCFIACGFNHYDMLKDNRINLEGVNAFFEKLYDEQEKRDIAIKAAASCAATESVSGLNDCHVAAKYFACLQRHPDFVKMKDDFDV
In short: (§1)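 K1-NPN came from titrating 2.0 µM protein (50 mM Tris-HCl, pH 7.4) with 1-NPN. Odorants at 2-20 µM then competed against 2.0 µM protein plus 2.0 µM 1-NPN for 2 min, with excitation at 337 nm and emission recorded over 390-490 nm. IC50 values were converted to Ki via Ki = IC50/(1 + [1-NPN]/K1-NPN).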

SfurOBP1 = SfurOBP1 (Sogatella furcifera, UniProt V5T8N5); experiment: biochemical; assay type: binding; conditions: for Fluorescence competitive binding assay, fluorescence intensity: OBP1, three replicate columns
SfurOBP1, sequence (V5T8N5 entry or part of it): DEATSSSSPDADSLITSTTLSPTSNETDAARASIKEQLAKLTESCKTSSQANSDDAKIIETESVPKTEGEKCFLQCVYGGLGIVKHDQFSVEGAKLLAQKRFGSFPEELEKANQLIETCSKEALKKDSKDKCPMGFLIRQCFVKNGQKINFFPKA
In short: as §1

SfurOBP11 = SfurOBP11 (Sogatella furcifera, UniProt V5T6E3); experiment: biochemical; assay type: binding
SfurOBP11, sequence (V5T6E3 entry or part of it): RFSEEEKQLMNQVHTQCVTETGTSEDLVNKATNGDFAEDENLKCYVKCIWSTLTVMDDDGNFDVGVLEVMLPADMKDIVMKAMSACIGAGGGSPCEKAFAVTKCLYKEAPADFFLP
In short: as §1

SfurOBP2 = SfurOBP2 (Sogatella furcifera, UniProt V5T759); experiment: biochemical; assay type: binding
SfurOBP2, sequence (V5T759 entry or part of it): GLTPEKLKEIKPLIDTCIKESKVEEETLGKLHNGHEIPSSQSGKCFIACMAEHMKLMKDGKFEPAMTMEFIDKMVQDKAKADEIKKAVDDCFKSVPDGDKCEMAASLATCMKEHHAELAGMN
In short: as §1

Structure (SMILES): CCCCCCCCCCCCC=O [tridecanal]
- number of insects choosing hexane arm (S. furcifera adults): 11
- number of insects choosing volatilies arm (S. furcifera adults): 13
- number of insects failed (no choice) (S. furcifera adults): 16
- Fluorescence competitive binding assay, fluorescence intensity (SfurOBP3; ligand concentration 2): 42528 and 41583 and 43473
- Fluorescence competitive binding assay, fluorescence intensity (SfurOBP3; ligand concentration 4): 41210 and 39055 and 38819
- Fluorescence competitive binding assay, fluorescence intensity (SfurOBP3; ligand concentration 6): 40763 and 42069 and 38391
- Fluorescence competitive binding assay, fluorescence intensity (SfurOBP3; ligand concentration 8): 40006 and 42611 and 39486
- Fluorescence competitive binding assay, fluorescence intensity (SfurOBP3; ligand concentration 10): 37952 and 40731 and 37192
- Fluorescence competitive binding assay, fluorescence intensity (SfurOBP3; ligand concentration 12): 41103 and 37710 and 38844
- Fluorescence competitive binding assay, fluorescence intensity (SfurOBP3; ligand concentration 14): 39070 and 39869 and 40524
- Fluorescence competitive binding assay, fluorescence intensity (SfurOBP3; ligand concentration 16): 39064 and 38170 and 38620
- Fluorescence competitive binding assay, fluorescence intensity (SfurOBP3; ligand concentration 18): 39885 and 40160 and 39604
- Fluorescence competitive binding assay, fluorescence intensity (SfurOBP3; ligand concentration 20): 39750 and 40400 and 40150
- IC50 (SfurOBP3; SfurOBP3, protein and 1-NPN both 2.0 µM, competitor 2-20 µM, read-out: IC50): > 20 µM
- Fluorescence competitive binding assay, fluorescence intensity (SfurOBP1; ligand concentration 2 (μM)): 7938 and 8209 and 9100
- Fluorescence competitive binding assay, fluorescence intensity (SfurOBP1; ligand concentration 4 (μM)): 8199 and 9497 and 8248
- Fluorescence competitive binding assay, fluorescence intensity (SfurOBP1; ligand concentration 6 (μM)): 9970 and 9490 and 9404
- Fluorescence competitive binding assay, fluorescence intensity (SfurOBP1; ligand concentration 8 (μM)): 9879 and 9942 and 9021
- Fluorescence competitive binding assay, fluorescence intensity (SfurOBP1; ligand concentration 10 (μM)): 11694 and 10870 and 12178
- Fluorescence competitive binding assay, fluorescence intensity (SfurOBP1; ligand concentration 12 (μM)): 10792 and 13471 and 12081
- Fluorescence competitive binding assay, fluorescence intensity (SfurOBP1; ligand concentration 14 (μM)): 13762 and 12603 and 7069
- Fluorescence competitive binding assay, fluorescence intensity (SfurOBP1; ligand concentration 16 (μM)): 15566 and 12262 and 13672
- Fluorescence competitive binding assay, fluorescence intensity (SfurOBP1; ligand concentration 18 (μM)): 13469 and 13374 and 13884
- Fluorescence competitive binding assay, fluorescence intensity (SfurOBP1; ligand concentration 20 (μM)): 16296 and 16551 and 15519
- IC50 (SfurOBP1; SfurOBP1, protein and 1-NPN both 2.0 µM, competitor 2-20 µM, read-out: IC50): > 20 µM
- IC50 (SfurOBP11; SfurOBP11, protein and 1-NPN both 2.0 µM, competitor 2-20 µM, read-out: IC50): > 20 µM
- Fluorescence intensity, fluorescence competitive binding assay, OBP11 (SfurOBP11; ligand concentration 2, replicate 1): 24967
- Fluorescence intensity, fluorescence competitive binding assay, OBP11 (SfurOBP11; ligand concentration 2, replicate 2): 25926
- Fluorescence intensity, fluorescence competitive binding assay, OBP11 (SfurOBP11; ligand concentration 2, replicate 3): 30699
- Fluorescence intensity, fluorescence competitive binding assay, OBP11 (SfurOBP11; ligand concentration 4, replicate 1): 25125
- Fluorescence intensity, fluorescence competitive binding assay, OBP11 (SfurOBP11; ligand concentration 4, replicate 2): 27382
- Fluorescence intensity, fluorescence competitive binding assay, OBP11 (SfurOBP11; ligand concentration 4, replicate 3): 26896
- Fluorescence intensity, fluorescence competitive binding assay, OBP11 (SfurOBP11; ligand concentration 6, replicate 1): 26493
- Fluorescence intensity, fluorescence competitive binding assay, OBP11 (SfurOBP11; ligand concentration 6, replicate 2): 26335
- Fluorescence intensity, fluorescence competitive binding assay, OBP11 (SfurOBP11; ligand concentration 6, replicate 3): 26650
- Fluorescence intensity, fluorescence competitive binding assay, OBP11 (SfurOBP11; ligand concentration 8, replicate 1): 24847
- Fluorescence intensity, fluorescence competitive binding assay, OBP11 (SfurOBP11; ligand concentration 8, replicate 2): 24250
- Fluorescence intensity, fluorescence competitive binding assay, OBP11 (SfurOBP11; ligand concentration 8, replicate 3): 25420
- Fluorescence intensity, fluorescence competitive binding assay, OBP11 (SfurOBP11; ligand concentration 10, replicate 1): 24577
- Fluorescence intensity, fluorescence competitive binding assay, OBP11 (SfurOBP11; ligand concentration 10, replicate 2): 24121
- Fluorescence intensity, fluorescence competitive binding assay, OBP11 (SfurOBP11; ligand concentration 10, replicate 3): 25032
- Fluorescence intensity, fluorescence competitive binding assay, OBP11 (SfurOBP11; ligand concentration 12, replicate 1): 26676
- Fluorescence intensity, fluorescence competitive binding assay, OBP11 (SfurOBP11; ligand concentration 12, replicate 2): 27183
- Fluorescence intensity, fluorescence competitive binding assay, OBP11 (SfurOBP11; ligand concentration 12, replicate 3): 26168
- Fluorescence intensity, fluorescence competitive binding assay, OBP11 (SfurOBP11; ligand concentration 14, replicate 1): 24529
- Fluorescence intensity, fluorescence competitive binding assay, OBP11 (SfurOBP11; ligand concentration 14, replicate 2): 23823
- Fluorescence intensity, fluorescence competitive binding assay, OBP11 (SfurOBP11; ligand concentration 14, replicate 3): 25235
- Fluorescence intensity, fluorescence competitive binding assay, OBP11 (SfurOBP11; ligand concentration 16, replicate 1): 23763
- Fluorescence intensity, fluorescence competitive binding assay, OBP11 (SfurOBP11; ligand concentration 16, replicate 2): 25792
- Fluorescence intensity, fluorescence competitive binding assay, OBP11 (SfurOBP11; ligand concentration 16, replicate 3): 24713
- Fluorescence intensity, fluorescence competitive binding assay, OBP11 (SfurOBP11; ligand concentration 18, replicate 1): 29957
- Fluorescence intensity, fluorescence competitive binding assay, OBP11 (SfurOBP11; ligand concentration 18, replicate 2): 29942
- Fluorescence intensity, fluorescence competitive binding assay, OBP11 (SfurOBP11; ligand concentration 18, replicate 3): 30678
- Fluorescence intensity, fluorescence competitive binding assay, OBP11 (SfurOBP11; ligand concentration 20, replicate 1): 31322
- Fluorescence intensity, fluorescence competitive binding assay, OBP11 (SfurOBP11; ligand concentration 20, replicate 2): 31721
- Fluorescence intensity, fluorescence competitive binding assay, OBP11 (SfurOBP11; ligand concentration 20, replicate 3): 27795
- IC50 (SfurOBP2; SfurOBP2, protein and 1-NPN both 2.0 µM, competitor 2-20 µM, read-out: IC50): > 20 µM
- Fluorescence competitive binding assay, OBP2 (raw fluorescence reading) (SfurOBP2; ligand concentration 2 (unit not given), replicate column 1 of 3): 15375
- Fluorescence competitive binding assay, OBP2 (raw fluorescence reading) (SfurOBP2; ligand concentration 2 (unit not given), replicate column 2 of 3): 16260
- Fluorescence competitive binding assay, OBP2 (raw fluorescence reading) (SfurOBP2; ligand concentration 2 (unit not given), replicate column 3 of 3): 17114
- Fluorescence competitive binding assay, OBP2 (raw fluorescence reading) (SfurOBP2; ligand concentration 4 (unit not given), replicate column 1 of 3): 15250
- Fluorescence competitive binding assay, OBP2 (raw fluorescence reading) (SfurOBP2; ligand concentration 4 (unit not given), replicate column 2 of 3): 17637
- Fluorescence competitive binding assay, OBP2 (raw fluorescence reading) (SfurOBP2; ligand concentration 4 (unit not given), replicate column 3 of 3): 17949
- Fluorescence competitive binding assay, OBP2 (raw fluorescence reading) (SfurOBP2; ligand concentration 6 (unit not given), replicate column 1 of 3): 17180
- Fluorescence competitive binding assay, OBP2 (raw fluorescence reading) (SfurOBP2; ligand concentration 6 (unit not given), replicate column 2 of 3): 18194
- Fluorescence competitive binding assay, OBP2 (raw fluorescence reading) (SfurOBP2; ligand concentration 6 (unit not given), replicate column 3 of 3): 18919
- Fluorescence competitive binding assay, OBP2 (raw fluorescence reading) (SfurOBP2; ligand concentration 8 (unit not given), replicate column 1 of 3): 15100
- Fluorescence competitive binding assay, OBP2 (raw fluorescence reading) (SfurOBP2; ligand concentration 8 (unit not given), replicate column 2 of 3): 16066
- Fluorescence competitive binding assay, OBP2 (raw fluorescence reading) (SfurOBP2; ligand concentration 8 (unit not given), replicate column 3 of 3): 16289
- Fluorescence competitive binding assay, OBP2 (raw fluorescence reading) (SfurOBP2; ligand concentration 10 (unit not given), replicate column 1 of 3): 16213
- Fluorescence competitive binding assay, OBP2 (raw fluorescence reading) (SfurOBP2; ligand concentration 10 (unit not given), replicate column 2 of 3): 16940
- Fluorescence competitive binding assay, OBP2 (raw fluorescence reading) (SfurOBP2; ligand concentration 10 (unit not given), replicate column 3 of 3): 17695
- Fluorescence competitive binding assay, OBP2 (raw fluorescence reading) (SfurOBP2; ligand concentration 12 (unit not given), replicate column 1 of 3): 14964
- Fluorescence competitive binding assay, OBP2 (raw fluorescence reading) (SfurOBP2; ligand concentration 12 (unit not given), replicate column 2 of 3): 18259
- Fluorescence competitive binding assay, OBP2 (raw fluorescence reading) (SfurOBP2; ligand concentration 12 (unit not given), replicate column 3 of 3): 16491
- Fluorescence competitive binding assay, OBP2 (raw fluorescence reading) (SfurOBP2; ligand concentration 14 (unit not given), replicate column 1 of 3): 16687
- Fluorescence competitive binding assay, OBP2 (raw fluorescence reading) (SfurOBP2; ligand concentration 14 (unit not given), replicate column 2 of 3): 18876
- Fluorescence competitive binding assay, OBP2 (raw fluorescence reading) (SfurOBP2; ligand concentration 14 (unit not given), replicate column 3 of 3): 18074
- Fluorescence competitive binding assay, OBP2 (raw fluorescence reading) (SfurOBP2; ligand concentration 16 (unit not given), replicate column 1 of 3): 17882
- Fluorescence competitive binding assay, OBP2 (raw fluorescence reading) (SfurOBP2; ligand concentration 16 (unit not given), replicate column 2 of 3): 16512
- Fluorescence competitive binding assay, OBP2 (raw fluorescence reading) (SfurOBP2; ligand concentration 16 (unit not given), replicate column 3 of 3): 18645
- Fluorescence competitive binding assay, OBP2 (raw fluorescence reading) (SfurOBP2; ligand concentration 18 (unit not given), replicate column 1 of 3): 18334
- Fluorescence competitive binding assay, OBP2 (raw fluorescence reading) (SfurOBP2; ligand concentration 18 (unit not given), replicate column 2 of 3): 17452
- Fluorescence competitive binding assay, OBP2 (raw fluorescence reading) (SfurOBP2; ligand concentration 18 (unit not given), replicate column 3 of 3): 17782
- Fluorescence competitive binding assay, OBP2 (raw fluorescence reading) (SfurOBP2; ligand concentration 20 (unit not given), replicate column 1 of 3): 16896
- Fluorescence competitive binding assay, OBP2 (raw fluorescence reading) (SfurOBP2; ligand concentration 20 (unit not given), replicate column 2 of 3): 19235
- Fluorescence competitive binding assay, OBP2 (raw fluorescence reading) (SfurOBP2; ligand concentration 20 (unit not given), replicate column 3 of 3): 19174
